From patent US9783838B2, “PmST3 enzyme for chemoenzymatic synthesis of alpha-2-3-sialosides” (The Regents of the University of California, priority 2012, dated 2017)
Where two headings read alike, the source gives them in different places.

How the values were obtained:
[1] = biological target: T1, PmST3Δ35-His6 (Pasteurella multocida, UniProt Q9CLP3); assay type: biochemical
Description: For metal effects, various concentrations (1, 5, 10, or 20 mM) of MgCl2 or MnCl2 were used. Ethylenediaminetetraacetic acid (EDTA) as a chelating agent was used at two concentrations (1 or 10 mM). A reducing reagent dithiothreitol (DTT) was used at two concentrations (1 or 10 mM). Reaction without metal ions, EDTA, or DTT was used as a control. The reaction was quenched by adding 490 μl of pre-chilled acetonitrile:water (20:80). Samples were kept on ice until being analyzed by HPLC equipped with a fluorescent detector (315 nm excitation and 400 nm emission).

[2] = tested on: PmST2; details: cited from earlier work
[3] = biological target: T2, PmST1 (Pasteurella multocida, UniProt Q15KI8); details: cited from earlier work
[4] = tested on: CstI; details: truncated monofunctional α2-3-sialyltransferase CstI; cited from earlier work
[5] = biological target: T1, PmST3Δ35-His6; assay: Acceptor substrate specificity of PmST3Δ35-His6; assay type: biochemical; details: acceptor 2 mM, CMP-Neu5Ac 2 mM, 37° C., pH 7.5
Description: All reactions were carried out in duplicate at 37° C. in Tris-HCl (200 mM, pH 7.5) containing an acceptor substrate (2 mM), CMP-Neu5Ac (2 mM), and PmST3Δ35-His6 (0.25 μg μl^−1). At 10 min or 4 hr, aliquots of reaction mixture were withdrawn and added to pre-chilled acetonitrile:water (20:80) (for reactions with acceptors containing 2-aminobenzoic acid (2AA) or 4-methylumbelliferone (MU) aglycone) or pre-chilled 95% ethanol (for reactions with acceptor containing Pro-triazole-C14 or pNP aglycone) and samples were kept on ice until being analyzed. Samples with acceptors containing 2AA (315 nm excitation and 400 nm emission) or MU (326 nm excitation and 372 nm emission) were analyzed by HPLC equipped with a fluorescent detector. Samples with acceptor containing Pro-triazole-C14 (214 nm) or pNP (300 nm) aglycone were centrifuged at 13,000 rpm for 5 min and analyzed by capillary electrophoresis (CE) equipped with a photodiode array (PDA) detector as described previously using sodium borate buffer (50 mM, pH 10.2) containing β-cyclcodextrin (20 mM) as a running buffer (Glycobiology, 21:1206-1216).

[6] = tested on: PmST2; details: up to 20 mM; cited from earlier work
[7] = biological target: T2, PmST1; details: cited from earlier work; remark: listed apart in the source
[8] = tested on: CC(=O)N[C@H]1[C@H]([C@H](O)[C@H](O)CO)O[C@](OP(=O)(O)OC[C@H]2O[C@@H](n3ccc(N)nc3=O)[C@H](O)[C@@H]2O)(C(=O)O)C[C@@H]1O; assay: purified protein, by the assay type; details: other: apparent, 37° C., Tris-HCl pH 7.5, other substrate fixed at 1 mM
Description: Reactions were carried out in duplicate at 37° C. for 7 min in a total volume of 10 μl in a Tris-HCl buffer (200 mM, pH 7.5).

[9] = Storage stability of purified truncated PmST3 proteins; assay type: physicochemical
Description: To further improve the expression of the soluble and active protein, three C-terminal truncated versions of PmST3 (PmST3Δ20-His6, PmST3Δ35-His6, and PmST3Δ45-His6 with the removal of C-terminal 20, 35, and 45 amino acid residues) were cloned into pET22b(+) vector as C-His6 (SEQ ID NO:37) tagged fusion proteins. […] For PmST3Δ45-His6, the expression of soluble protein was improved to the level of MBP fusion protein (4 mg of purified protein from 1 liter of cell culture by Ni^2+-NTA affinity chromatography). However, PmST3Δ45-His6 seemed to have stability issues. […] Under the same expression conditions, purified PmST3Δ35-His6 can be routinely obtained at a level of 29 mg from cell lysate from one liter of cell culture.

[10] = Comparison of three Pasteurella multocida sialyltransferases (activities and acceptor use); assay type: biochemical
[11] = pH profile of α2-3-sialyltransferase activity; assay type: biochemical
Description: pH profile of PmST3Δ35-His6. Reactions were carried out in duplicate at 37° C. for 10 min. […] Buffers used were: MES-KOH (pH 4.0-6.5), Tris-HCl (pH 7.0-9.0), and CHES (pH 10.0). Enzymatic reaction was quenched by adding 490 μl of pre-chilled acetonitrile:water (20:80) mixture. The samples were kept on ice until being analyzed by a Shimadzu LC-2010A HPLC system equipped with a membrane on-line degasser, a temperature control unit, and a fluorescence detector (the excitation wavelength was set at 315 nm and the emission wavelength was set at 400 nm) using a reverse phase Premier C18 column (250×4.6 mm I.D., 5 μm particle size, Shimadzu) protected with a C18 guard column cartridge. Mobile phase used was 20% acetonitrile in water.

## O[C@H](CS)[C@H](O)CS (racemic) [DTT, dithiothreitol]
[1]; DTT 1 or 10 mM
  effect on enzyme activity: Change of activity was not observed

## CC(=O)N[C@H]1[C@H]([C@H](O)[C@H](O)CO)O[C@](OP(=O)(O)OC[C@H]2O[C@@H](n3ccc(N)nc3=O)[C@H](O)[C@@H]2O)(C(=O)O)C[C@@H]1O [CMP-Neu5Ac, Cytidine 5′-monophosphate N-acetylneuraminic acid]
[2]
  Km: 1300 ± 100 µM
[3]
  Km: 440 µM
[4]
  Km: 400 µM

## O=C(O)CN(CCN(CC(=O)O)CC(=O)O)CC(=O)O [EDTA, Ethylenediaminetetraacetic acid]
[1]; EDTA up to 10 mM
  effect on enzyme activity: did not affect

## O=[N+]([O-])c1ccc(O[C@@H]2O[C@H](CO)[C@H](O)[C@H](O)[C@H]2O)cc1 [GalβpNP, p-nitrophenyl β-galactoside]
[5]
  % Conv. (10 min): <1%
  % Conv. (4 h): 9.4 ± 0.4%

## Cc1cc(=O)oc2cc(O[C@@H]3O[C@H](CO)[C@@H](O[C@@H]4O[C@H](CO)[C@H](O)[C@H](O)[C@H]4O)[C@H](O)[C@H]3O)ccc12 [LacβMU, 4-methylumbelliferyl β-lactoside]
[5]
  % Conv. (10 min): 29.9 ± 1.2%
  % Conv. (4 h): 65.6 ± 1.6%

## [Cl-].[Cl-].[Mg+2] [MgCl2]
[1]; MnCl2 or MgCl2 up to 20 mM
  effect on enzyme activity: did not affect
[6]
  effect on enzyme activity: did not affect

## [Cl][Mn][Cl] [MnCl2]
[1]; MnCl2 or MgCl2 up to 20 mM
  effect on enzyme activity: did not affect
[7]; 5 mM or 10 mM
  effect on α2-3-sialyltransferase activity: decreased
[7]; 20 mM
  effect on α2-3-sialyltransferase activity: almost abolished
[6]
  effect on enzyme activity: did not affect

## PmST3Δ35-His6 (Pasteurella multocida subsp. multocida str. Pm70)
[8]
  Km: 260 ± 10 µM
  Vmax: 44 µM/min
  kcat: 0.122 ± 0.00167 s⁻¹
  kcat/Km: 467 M⁻¹ s⁻¹

B1: PmST3Δ45-His6: C-terminal 45 residue truncated, C-His6 tagged PmST3, SEQ ID NO: 12 (protein)
chain: MDKFAEHEIPKAVIVAGNGESLSQIDYRLLPKNYDVFRCNQFYFEERYFLGNKIKAVFFTPGVFLEQYYTLYHLKRNNEYFVDNVILSSFNHPTVDLEKSQKIQALFIDVINGYEKYLSKLTAFDVYLRYKELYENQRITSGVYMCAVAIAMGYTDIYLTGIDFYQASEENYAFDNKKPNIIRLLPDFRKEKTLFSYHSKDIDLEALSFLQQHYHVNFYSISPMSPLSKHFPIPTVEDDCETTFVAPLKENYINDILLVDKLAAALEHHHHHH
modifications: synthetic C-terminal truncated Pasteurella multocida sialyltransferase 3 (PmST3, Pm1174) C-His-6 tagged fusion protein PmST3delta45-His-6
[9]; after 3 days of storage at 4° C. after dialysis against 10% glycerol and 25 mM Tris-HCl, pH 7.5
  storage stability (precipitation): Precipitation was observed

B2: PmST3Δ35-His6: C-terminal 35 residue truncated, C-His6 tagged PmST3 α2-3-sialyltransferase, SEQ ID NO: 11 (protein)
chain: MDKFAEHEIPKAVIVAGNGESLSQIDYRLLPKNYDVFRCNQFYFEERYFLGNKIKAVFFTPGVFLEQYYTLYHLKRNNEYFVDNVILSSFNHPTVDLEKSQKIQALFIDVINGYEKYLSKLTAFDVYLRYKELYENQRITSGVYMCAVAIAMGYTDIYLTGIDFYQASEENYAFDNKKPNIIRLLPDFRKEKTLFSYHSKDIDLEALSFLQQHYHVNFYSISPMSPLSKHFPIPTVEDDCETTFVAPLKENYINDILLPPHFVYEKLGVDKLAAALEHHHHHH
modifications: synthetic C-terminal truncated Pasteurella multocida sialyltransferase 3 (PmST3, Pm1174) C-His-6 tagged fusion protein PmST3delta35-His-6
[10]
  Use galactosyl glycolipids as acceptors: Yes
  Use galactosyl oligosaccharides as acceptors: Yes
  α2-3-sialidase activity: No
  α2-3-sialyltransferase activity: Yes
  α2-3-trans-sialidase activity: No
  α2-6-sialyltransferase activity: No
[11]; LacβPro2AA as acceptor
  optimal pH range for α2-3-sialyltransferase activity: 6.5-9.0
[11]; pH below 6.0 or 10.0
  activity outside the optimal pH range: decreased dramatically
[9]; after 3 months of storage in 10% glycerol and 25 mM Tris-HCl (pH 7.5) buffer
  storage stability (activity): remained active
